Data on one molecule can be found in patent US20260315446A1, “ANTIFUNGAL COMPOUNDS AND USES THEREOF” (priority 2023, published 2026).

Test [1] deals with Cryptococcus deneoformans. The test can be described thus: MIC assay (Example 3). Particulars: 72 hours with 5 times starting amount of cells. Format: cell-based. As to the method:
For the lead compound JH-FK-08, the mechanism of action resulting in antifungal activity was tested for conservation of calcineurin inhibition. To probe the JH-FK-08 mechanism of action, MICs of JH-FK-08 were determined with fungal mutants that lack the drug-binding protein FKBP12 or have mutations in the binding site on calcineurin that prevent FKBP12-FK506 binding and inhibition. […] Taken together, these findings support the hypothesis that JH-FK-08 requires FKBP12 for antifungal activity, and the target of the FKBP12-JH-FK-08 complex is calcineurin. The length of time that drugs are active in vivo is critical information relevant to drug development, and the time frame of drug activity can have a drastic impact on treatment regimen and efficacy. Therefore, the pharmacokinetic profiles of FK506 and JH-FK-08 were investigated. Three male and three female CD1 mice were administered a single dose of JH-FK-08 or FK506 at 40 mg/kg. Whole blood samples were taken over a 24-hour period, and the drug concentration remaining in the blood was determined. Pharmacokinetic parameters were calculated using a non-compartmental approach (see, Gabrielsson J, Weiner D. 2012. Methods Mot Biol Clifton NJ 929:377-389). […] When assessing specific pharmacokinetic measures, sex differences began to emerge.
In vitro antifungal activity was assessed for all fungal strains in RPMI 1640 (Sigma-Aldrich R1383). MICs were measured using Clinical and Laboratory Standards Institute (CLSI) M38-A2 and M27-A3 standard in vitro antifungal susceptibility protocols. C. neoformans and A. fumigatus testing was performed at 37° C. MECs for A. fumigatus were recorded after 48 h of growth. C. albicans testing was performed at 30° C. with a uniform concentration of 2 μg/mL of fluconazole to sensitize the cells to calcineurin inhibition.
C. neoformans clinical isolate H99 and congenic-derived strain KN99α were used (see, Nielsen K, et al., 2003. Infect Immun 71:4831-4841). […]

In a further test the test system is C. neoformans strain H99. In words: Murine cryptococcal infection, lung fungal burden (Example 3). Format: in vivo, Cryptococcus neoformans in A/J mice. Particulars: once daily; fluconazole 12 mg/kg, JH-FK-08 40 mg/kg. As to the method:
In vivo antifungal activity and therapeutic benefit were assayed by investigating the impact of the FK520 analog on organ fungal burden during cryptococcosis. Specifically, the in vivo efficacy of JH-FK-08 on fungal burden was assessed using A/J female mice. Immunodeficient A/J mice were selected in part due to their defect in complement component five and their susceptibility to cryptococcal infection. Treatment groups included vehicle of 10% Kolliphor: ethanol (1:1) in phosphate-buffered saline (PBS), […], or the fluconazole and JH-FK-08 combination, […] infection. […] Mice were intranasally infected with C. neoformans strain H99, and fungal burden in the lung, spleen, and brain was assessed after 14 days of treatment.
C. neoformans inoculum was prepared by growing a 5-mL overnight YPD culture spinning in a tissue culture roller drum at 30° C. Cells were pelleted by centrifugation and washed in sterile PBS three times. Cell density was determined by hemocytometer, and cells were diluted to 2×10^6 cells/mL. Mice (10 to 20 g) were infected with 10^5 cells of C. neoformans H99. For inhalation infection, animals were anesthetized with isoflurane before 50 μL of inoculum was pipetted onto the upright nasal passages of each animal. Following inhalation of the inoculum, animals were monitored for post anesthesia recovery. Treatment of animals began 4 hours post infection and was continued for 14 days. Fungal burden was assessed 24 h after the final dose.
For survival curve analysis, animals were monitored until reaching defined humane end points, including social isolation, hunched posture, weight loss, lack of grooming, and labored breathing, and were then euthanized via CO2 inhalation. […] One hundred microliters of each dilution was plated on YPD plates supplemented with YPD 50 μg/mL ampicillin and 30 μg/mL chloramphenicol, incubated at 30° C. for 2 days, and assessed for colony-forming units. CFU per organ weight was calculated and plotted using GraphPad Prism 9.

A value given as a limit tells only on which side of the number the result lay.

Consider `CC[C@@H]1/C=C(\C)C[C@H](C)C[C@H](OC)[C@H]2O[C@@](O)(C(=O)C(=O)N3CCCC[C@H]3C(=O)O[C@H](/C(C)=C/C3CC[C@@H](O)[C@H](OC)C3)[C@H](C)[C@@H](O)C/C1=N/NC(=O)OC)[C@H](C)C[C@@H]2OC` (stereo partly shown) [JH-FK-08], for which the MIC/MEC in test [1] (strain C21F2 (JEC21 CNB1-1)) was over 25 mg/L; in test [1] (strain C21F3 (JEC21 frr1)), over 25 mg/L; in test [1] (strain JEC21), under 0.4 mg/L. Also, the “lung fungal burden reduction” value with C. neoformans strain H99 is recorded as “limited efficacy in reducing lung fungal burden”.
